Where no end group is shown, it is not given here.
How the values were obtained:
cathepsin D [1] = assay: Cathepsin D digestion of wild type and mutant Ii in trimers with HLA-DR1 α,β chains (SDS-PAGE of fragments); type: biochemical; conditions: pH 5.0, 30 min, room temperature, Jesthom microsomal membrane proteins
Protocol: The lowest level of cathepsin D seen to cleave Ii was 0.1 U/ml. Solubilized microsomal membrane proteins from [^35 S]methionine-labeled Jesthom cells were treated with the cathepsin D (concentrations 0, 0.01, 0.05, 0.1, 0.5, 2.5, 10.0 U/ml) at pH 5.0 for 30 min at room temperature. At the end of the incubation, the enzyme was inactivated and immunoprecipitates with anti-class II mAb, IVA12 or with anti-Ii mAb, VIC-Y1 were formed. The immunoprecipitated samples were analyzed by SDS-PAGE and autoradiography. In a second experiment, when the lowest level of cathepsin D (0.1 U/ml) seen to cleave Ii was added to the assay for peptide binding in the presence of varying concentrations of cathepsin B (0.02-0.5 U/ml), the net level of peptide binding was enhanced about 3 times that seen without cathepsin D, as judged by densitometry of the autoradiographs. For this experiment iodinated HSAB-MA(18-29) peptide and unradiolabeled microsomal membranes were incubated with or without 0.1 U/ml cathepsin D for 10 min or 30 min in the presence of varying amounts of cathepsin B (0.02, 0.1, or 0.5 U/ml). After subsequent photoactivation and immunoprecipitation with anti-class II mAb, the samples were subjected to SDS-PAGE and autoradiography.
CD digestions were carried out according to Reyes et al. (1991). […]

[2] = test system: E^k -restricted murine T cell hybridoma, TPc9.1; assay: Enhancement of presentation of pigeon cytochrome C(81-104) by fixed CH27 cells to TPc9.1 T hybridoma (IL-2/IL-4, HT-2 indicator); type: cell-based
Protocol: The assay was carried out as follows. 5×10^4 paraformaldehyde-fixed CH27 B lymphoma cells (antigen presenting cells) were incubated in 96-well plates with 5×10^4 TPc9.1 T hybridoma cells (irradiated 2200 rads) for 24 hrs in the presence of: no peptides, 50 μM Ii peptide only, 6 μM pigeon cytochrome C(81-104) peptide only, and 50 μM Ii peptide plus 6 μM pigeon cytochrome C(81-104) peptide. Each condition was assayed in sextuplet. After incubation, the response of the T cell hybridoma was determined by measuring the IL-2/IL-4 secreted during the 24 hr culture. The supernatants were collected and were tested for IL-2/IL-4 content by the ability to support the growth of the IL-2/ IL-4-dependent cell line HT-2 as measured by [^3 H]thymidine incorporation. The values presented in Table V are the CPM×10^-3 incorporated in the HT-2 indicator assay.
The enhancement of responses to pigeon cytochrome C peptide (81-104) by Ii (148-164) and Ii (78-92) was assayed as a function of concentration of the added Ii peptide (Table VI). The values in the Table represent the % enhancement of the pigeon cytochrome C(81-104) peptide-specific, E^k -restricted response by the TPc9.1 murine T cell hybridoma (T) to the peptide presented by paraformaldehyde-fixed CH27 B lymphoma cells (APC). Culture supernatants were collected and were tested for IL-2/IL-4 content by the ability to support the growth of the Il-2/IL-4-dependent cell Line HT-2 as measured by the incorporation of [^3 H]thymidine. The % enhancement was calculated as: [(CPM of T+APC+peptide+Ii peptide / CPM of T+APC+peptide)×100]-100.

cathepsin D [3] = target: cathepsin D (Homo sapiens, UniProt P07339); conditions: cited from earlier work
Sequence of cathepsin D (Homo sapiens, UniProt P07339) (P07339 65-412, species assumed): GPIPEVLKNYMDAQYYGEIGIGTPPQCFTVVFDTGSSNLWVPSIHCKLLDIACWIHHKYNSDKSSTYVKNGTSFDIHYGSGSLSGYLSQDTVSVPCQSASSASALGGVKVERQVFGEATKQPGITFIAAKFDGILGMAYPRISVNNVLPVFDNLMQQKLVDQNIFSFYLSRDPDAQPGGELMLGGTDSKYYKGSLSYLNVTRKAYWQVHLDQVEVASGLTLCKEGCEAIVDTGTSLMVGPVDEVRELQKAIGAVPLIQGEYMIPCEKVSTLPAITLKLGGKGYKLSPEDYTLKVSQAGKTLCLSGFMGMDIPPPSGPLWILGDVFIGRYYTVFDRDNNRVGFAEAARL

cathepsin B = cathepsin B (Homo sapiens, UniProt P07858); conditions: cited from earlier work
Ii = conditions: cited from earlier work

Molecule	lowest level of cathepsin D seen to cleave Ii (cathepsin D [1])	% enhancement of the pigeon cytochrome C(81-104) peptide-specific response ([2]; Ii peptide 1 μM)	% enhancement of the pigeon cytochrome C(81-104) peptide-specific response ([2]; Ii peptide 10 μM)	% enhancement of the pigeon cytochrome C(81-104) peptide-specific response ([2]; Ii peptide 50 μM)	% enhancement of the pigeon cytochrome C(81-104) peptide-specific response ([2]; Ii peptide 100 μM)	inhibition of cathepsin D (cathepsin D [3])	inhibition of cathepsin B (cathepsin B)	antigen charging in vitro (Ii)	final proteolysis of Ii (Ii)
cathepsin D: aspartyl protease	0.1 U/ml								
YRMKLPKPPKPVSKMR [Ii (78-92), YRMKLPKPPKPVSKMR]		40%	101%	187%	170%				
CC(=O)N[C@@H](CC(C)C)C(=O)N[C@@H](CC(C)C)C(=O)N[C@H](C=O)CCCNC(=N)N [leupeptin]						not	inhibited	blocks antigen charging in vitro	limits the final proteolysis of Ii to p21 and p14 fragments
ENLRHLKNTMETLDWKV [Ii (148-164), ENLRHLKNTMETLDWKV]		0%	19%	91%	140%				

Source: patent US5559028A, “Methods of enhancing or antigen presentation to T cells inhibiting” (Antigen Express, Inc., priority 1993, dated 1996)
